Like-named read-outs stand apart in the source and are kept apart here.

This note sets out measurements from patent US4920118A, “Aromatic 2-aminoalkyl-1,2-benzoisothiazol-3-(2H)one-1,1-dioxide and their use as anxiolytic and anti-hypertensive agents” (Merrell Dow Pharmaceuticals Inc., priority 1989, dated 1990).

The target in assay [1] is T1, 5-HT1A recognition sites (Rattus norvegicus, UniProt P19327).
T1 construct: male normotensive Sprague-Dawley rat frontal cortex was dissected, frozen in liquid nitrogen; from tissue; host or cells: frontal cortex of male normotensive Sprague-Dawley rats, washed homogenate
T1 sequence (P19327 1-422): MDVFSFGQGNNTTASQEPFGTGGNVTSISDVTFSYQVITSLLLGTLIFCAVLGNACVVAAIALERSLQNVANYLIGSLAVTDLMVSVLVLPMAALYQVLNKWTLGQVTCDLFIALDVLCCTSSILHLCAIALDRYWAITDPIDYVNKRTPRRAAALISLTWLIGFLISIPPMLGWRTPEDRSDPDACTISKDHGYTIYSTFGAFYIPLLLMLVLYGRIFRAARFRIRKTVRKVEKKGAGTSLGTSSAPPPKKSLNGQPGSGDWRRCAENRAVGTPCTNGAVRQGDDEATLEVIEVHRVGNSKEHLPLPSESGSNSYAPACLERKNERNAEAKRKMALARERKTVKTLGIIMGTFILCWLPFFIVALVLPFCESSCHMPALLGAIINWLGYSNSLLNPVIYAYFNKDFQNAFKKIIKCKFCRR
As to the kind of experiment: 5-HT1A radioligand binding, rat frontal cortex homogenate. The note with it: for Fold Increase (antilog of the difference of the test compound compared to buspirone): 5-HT1A binding potency relative to buspirone.

In assay [2] the test system is conscious spontaneously hypertensive rats. In words: Arterial blood pressure and heart rate in conscious spontaneously hypertensive rats. The class given is in vivo, rat. Conditions: for Δ BP / Δ HR: conscious SHR. How it is done: In a separate experiment arterial blood pressure and heart rate were measured directly in conscious male, spontaneously hypertensive rats weighing 250-350 g (Charles River, France). The same test compound was administered, either s.c. or orally, as a saline solution of 1 ml/kg body weight in the doses shown below.

Assay [3] concerns anesthetized normotensive Sprague-Dawley rats. As to the kind of experiment: Blood pressure and heart rate in anesthetized normotensive rats. Type of assay: in vivo, rat. The protocol: Male, normotensive Sprague-Dawley rats weighing 250-350 g (supplied by Charles River, France) were anesthetized with pentobarbitone sodium, 60 mg/kg, i.p., plus 15 mg/kg s.c. Blood pressure was recorded either from the left common carotid artery or from a femoral artery by means of a Statham pressure transducer (Type P23 AA) and heart rate was recorded from the electrocardiogram using a Beckman cardiotachometer coupler (Type 9757 B). […] A femoral vein was cannulated for the intravenous injection of drugs. After completion of all operative procedures, heparin 500 U was injected intravenously.
The compounds of Example I, 2-[4-[(2,3-dihydro-1,4-benzodioxine-2-yl)methylamino]butyl]-1,2-benzoisothiazol-3(2H)one-1,1-dioxide was administered s.c. as a saline solution in a volume of 1 ml/kg body weight. The following changes in blood pressure (B.P.) and heart rate (H.R.) were observed.

[4] abbreviates: [3H]-8-OH-DPAT, rat frontal cortex, mean ± S.E.M. of 3 independent experiments, read-out: 5-HT1A Binding Affinity Rat Brain Cortex (pIC50) (converted).

Regarding `O=C1c2ccccc2S(=O)(=O)N1CCCCN1CCc2c([nH]c3ccccc23)C1` [Example II, 2-[4-(2-[1,2,3,4]-tetrahydro-β-carbolinyl)butyl]-1,2-benzoisothiazol-3(2H)one-1,1-dioxide], in assay [1], the IC50 was 6.92 nM and the “Fold Increase (antilog of the difference of the test compound compared to buspirone)” value is listed as 4.4.

As to `O=C1c2ccccc2S(=O)(=O)N1CCCCNCC1COc2ccccc2O1` (stereo not drawn) [Example I, 2-[4-[(2,3-Dihydro-1,4-benzodioxin-2-yl)methylamino]butyl]-1,2-benzoisothiazol-3(2H)one-1,1-dioxide], the “Δ BP” value is reported as -20 mmHg in assay [2] (100 μg/kg s.c.); -65 mmHg in assay [2] (200 μg/kg s.c.); -75 mmHg in assay [2] (500 μg/kg s.c.); -25 mmHg in assay [2] (1 mg/kg per os); -45 mmHg in assay [2] (5 mg/kg per os); -35 mmHg in assay [3] (25 μg/kg s.c.). In addition, the “Δ BP” value in assay [3] (500 μg/kg s.c.) is -50 mmHg. Besides, the “Δ HR” value in assay [2] (100 μg/kg s.c.) is “+80 beats/min”; in assay [2] (200 μg/kg s.c.), “+100 beats/min”; in assay [2] (500 μg/kg s.c.) it was “+120 beats/min”; in assay [2] (1 mg/kg per os), “+100 beats/min”; in assay [2] (5 mg/kg per os), “+100 beats/min”; in assay [3] (25 μg/kg s.c.) it was -80 beats/min. Also, the “Δ HR” value in assay [3] (500 μg/kg s.c.) was -90 beats/min. For the same compound, the “Effect on blood pressure and heart rate (in words)” value in assay [2] (conscious spontaneously hypertensive rats) is “lowers the blood pressure with reflex tachycardia”; in assay [3], “effectively lowers the blood pressure and heart rate”. Further, the “Fold Increase (antilog of the difference of the test compound compared to buspirone)” value in assay [1] is 66. Further, the IC50 in assay [1] (setting [4]) is 0.457 nM.

Take `COc1cccc2c1CC(NCCCCN1C(=O)c3ccccc3S1(=O)=O)CC2` (stereo not drawn) [Example III, 2-[4-[8-Methoxytetralin-2-amino]butyl]1,2-benzoisothiazol3(2H)one-1,1-dioxide]: the “Fold Increase (antilog of the difference of the test compound compared to buspirone)” value in assay [1] was determined as 10. Besides, the IC50 in assay [1] (setting [4]) is 3.02 nM.

As to `O=C1c2ccccc2S(=O)(=O)N1CCCCNCC1COc2ccccc2N1` (stereo not drawn) [Example V, 2-[4-[(2,3-Dihydro-1,4-benzoxazin-3-yl)methylamino]butyl]-1,2-benzoisothiazol-3-(2H)one-1,1-dioxide], in assay [1], the “Fold Increase (antilog of the difference of the test compound compared to buspirone)” value was found to be 3.2. In addition, the IC50 in assay [1] (setting [4]) is 9.33 nM.
